Converted amounts (≈) assume the structure as drawn. Read-outs that look alike come from different tables or passages of the source.
What was measured:
HT-29 (colon) cells = assay: Antiproliferative activity in vitro; type: cell-based, human
[1] = test system: HT-29 colorectal carcinoma xenografts; assay: Efficacy study in subcutaneous HT29 xenograft; details: for Deaths TR (treatment related) / Regressions CR (complete regression) / Regressions PR (partial regression) / Regressions TFS (tumor-free survivor): n=10; for Median TTE (time to endpoint): endpoint 1000 mm^3 or Day 90
Description: Efficacy was evaluated in nude mice bearing subcutaneously implanted HT-29 colorectal carcinoma xenografts. HRLN female nu/nu mice were set up with 1 mm^3 HT-29 tumor fragments s.c. in the flank. The pair match was then done when the tumors reached an average size of 80 to 120 mg and was followed by beginning treatment. Dosing solutions were prepared daily and body weight was determined bi-weekly until the end of the study. Caliper measurements were taken bi-weekly to the end of the study. Animals were monitored individually, and the endpoint of the experiment was a tumor volume of 1 g or 90 days, whichever came first. […] When the endpoint was reached, the animals were euthanized.
Tubulysin A was administered as a solution in 10% DMSO:1% Tween 80:89% Saline. The vehicle was 10% DMSO:1% Tween 80:89% Saline.

[2] = neutral pH
[3] = for Day of mean BW Nadir / # of TR (treatment related deaths) / Avg. Day of TR: qwkx3 iv
Description: HRLN female nu/nu mice were set up and dosing solutions were prepared. Body weight was determined biweekly until the end of the study. The endpoint was where mean weight loss exceeded 20% or >10% of animals in a group died, dosing was immediately stopped. Moribund animals were euthanized following PRC SOP. All animals were euthanized 14 days post final dose.

[4] = test system: human ovarian carcinoma cell line A2780; assay: Cytotoxicity of etoposide derivatives, MTS assay; type: cell-based; details: A2780, 72 h
Description: The cytotoxicity of drug-polymer conjugates and linker-drug precursors was determined in the human ovarian carcinoma cell line A2780. […] 10,000 cells per well were seeded in a 96-well plate and incubated at 37° C. for 24 hours, at which time drug was added to triplicate wells at various concentrations. After 72 hours of incubation at 37° C. in the presence of drug, cells were washed with PBS, incubated for 1 hour with an MTS solution, and analyzed according to manufacturer's instructions (CellTiter 96 one solution cell proliferation assay, Promega, Madison, Wis.).

SMILES: CC[C@H](C)[C@H](NC(=O)[C@H]1CCCCN1C)C(=O)N(COC(=O)CC(C)C)[C@H](C[C@@H](OC(C)=O)c1nc(C(=O)N[C@@H](Cc2ccc(O)cc2)C[C@H](C)C(=O)O)cs1)C(C)C [Tubulysin A, tubulysin A]
- IC50 (A2780 (ovarian) cells): 2.4 nM
- IC50 (HT-29 (colon) cells): 1.3 nM
- IC50 (NCI-H1299 (lung) cells): 2.8 nM
- % TGD ([1]; 0.1 mg/kg qwkx3 i.v. (Group 2)): 2.42%
- BW Nadir (%) ([1]; 0.1 mg/kg qwkx3 i.v. (Group 2)): −26.80%
- TC (tumor growth delay, T−C) ([1]; 0.1 mg/kg qwkx3 i.v. (Group 2)): 0.81 days
- Deaths TR (treatment related) ([1]; 0.1 mg/kg qwkx3 i.v. (Group 2)): 5
- Regressions CR (complete regression) ([1]; 0.1 mg/kg qwkx3 i.v. (Group 2)): 0
- Regressions PR (partial regression) ([1]; 0.1 mg/kg qwkx3 i.v. (Group 2)): 0
- Regressions TFS (tumor-free survivor) ([1]; 0.1 mg/kg qwkx3 i.v. (Group 2)): 0
- Median TTE (time to endpoint) ([1]; 0.1 mg/kg qwkx3 i.v. (Group 2)): 34.46
- mortality ([1]; 0.1 mg/kg qwkx3 i.v., HT-29 xenograft mice): 50%
- maximum body weight loss ([1]; 0.1 mg/kg qwkx3 i.v., on day 26): 26.8%
- toxicity of the free drug ([1]; even at 0.1 mg/kg): severely toxic
- solubility in water [2]: 100 µg/mL (≈ 118 µM)
- Day of mean BW Nadir ([3]; 0.05 mg/kg): 5 days
- # of TR (treatment related deaths) ([3]; 0.05 mg/kg, n=5): 0
- Avg. Day of TR ([3]; 0.3 mg/kg): 9
- Day of mean BW Nadir ([3]; 0.3 mg/kg): 8 days
- # of TR (treatment related deaths) ([3]; 0.3 mg/kg, n=4): 4
- Avg. Day of TR ([3]; 1 mg/kg): 4
- Day of mean BW Nadir ([3]; 1 mg/kg): 3 days
- # of TR (treatment related deaths) ([3]; 1 mg/kg, n=4): 4
- Avg. Day of TR ([3]; 3 mg/kg): 3
- Day of mean BW Nadir ([3]; 3 mg/kg): 2 days
- # of TR (treatment related deaths) ([3]; 3 mg/kg, n=4): 4
- maximum tolerated dose (MTD) ([3]; nude mice, conjugate in Tubulysin equivalents): 0.05 mg/kg

SMILES: CC[C@]1(O)C[C@@H]2CN(CCc3c([nH]c4ccccc34)[C@@](C(=O)OC)(c3cc4c(cc3OC)N(C)[C@H]3[C@@](O)(C(=O)OC)[C@H](OC(C)=O)[C@]5(CC)C=CCN6CC[C@]43[C@@H]65)C2)C1 [Vinblastine]
- antitumor effectiveness compared to CDP-PEG-SS-Tubulysin ([1]; 4 mg/kg qwkx3 i.v.): significantly less effective
- % TGD ([1]; 4 mg/kg qwkx3 i.v. (Group 3)): 33.89%
- BW Nadir (%) ([1]; 4 mg/kg qwkx3 i.v. (Group 3)): −3.60%
- Statistical Significance vs G1 (vehicle) ([1]; 4 mg/kg qwkx3 i.v. (Group 3)): ** (** = 0.001< P < 0.01)
- Statistical Significance vs G4 (CDP-S-S-TUB qwkx3) ([1]; 4 mg/kg qwkx3 i.v. (Group 3)): *** (*** = P < 0.001)
- TC (tumor growth delay, T−C) ([1]; 4 mg/kg qwkx3 i.v. (Group 3)): 11.4 days
- Deaths TR (treatment related) ([1]; 4 mg/kg qwkx3 i.v. (Group 3)): 0
- Regressions CR (complete regression) ([1]; 4 mg/kg qwkx3 i.v. (Group 3)): 0
- Regressions PR (partial regression) ([1]; 4 mg/kg qwkx3 i.v. (Group 3)): 0
- Regressions TFS (tumor-free survivor) ([1]; 4 mg/kg qwkx3 i.v. (Group 3)): 0
- Median TTE (time to endpoint) ([1]; 4 mg/kg qwkx3 i.v. (Group 3)): 45.05

SMILES: COc1cc([C@@H]2c3cc4c(cc3[C@@H](O[C@@H]3O[C@@H]5CO[C@@H](C)O[C@H]5[C@H](O)[C@H]3O)[C@H]3COC(=O)[C@H]23)OCO4)cc(OC)c1O [etoposide]
- IC50 [4]: 200 nM

— patent publication US8497365B2, “Cyclodextrin-based polymers for therapeutics delivery” (priority 2007, dated 2013)
